Assays:
[1] = tested on: OsHDAC1 transcription product; assay: Effect of ABA treatment on expression of OsHDAC1 transcription product in leaves of Ai::OsHDAC1 rice plant; assay type: cell-based; settings: 20 μM ABA, MS medium
Experimental: While leaves of Ai::OsHDAC1 rice plant produced by above Example 5 was incubated in MS medium with or without 20 μM ABA, a total RNA was isolated from leaves at regular intervals to examine the expression level of OsHDAC1 transcription product. As the result, it was identified that the expression of the transcription product reaches at the maximum level one hour after ABA treatment and rapidly decreases after 6 hours. Then, callus cells, leaves and roots of rice plant were incubated in MS medium with or without 20 μM ABA for one hour, and a total RNA was extracted. […] Further, the same result could be confirmed from Western blot analysis of OsHDAC1 protein.

untransformed rice plant = assay: Phenotype and growth in MS medium with 20 μM ABA, untransformed rice plant; assay type: in vivo; settings: 2 weeks
Experimental: (§1) In order to investigate the effect of overexpression of OsHDAC1 on the phenotype and growth of Ai::OsHDAC1 rice plant, Ai::OsHDAC1 rice plant was incubated as the first generation and then, young seedlings or calluses at the second generation were transferred to MS medium with or without 20 μM ABA and incubated for 2 weeks. After incubation, the whole shape of rice plant, and leaves, collars and roots were observed. As the control group, untransformed rice plant was also observed. FIGS. 6a, 6b, 6c and 6d are photographs showing the growth and morphological change of Ai::OsHDAC1 rice plant, the change in the growth of leaves, the change of collars and the change of roots, respectively. In each drawing, NT denotes untransformed rice plant and lanes 2, 3 and 4 in FIGS. 6b, 6c and 6d denote respective individuals of transformed Ai::OsHDAC1 rice plant.

Ai::OsHDAC1 rice plant = assay: Phenotype and growth in MS medium with 20 μM ABA, Ai::OsHDAC1 rice plant; assay type: in vivo; settings: 2 weeks
Experimental: as §1

histone deacetylase = assay: Effect of tricostatin A (TSA) treatment on histone H4 acetylation, immunoblot of rice callus cells; assay type: cell-based; settings: 1 μM TSA with 20 μM ABA, 1 to 6 hours
Experimental: Rice callus cells, leaves and roots were incubated in MS medium with (+) or without (−) 20 μM ABA for one hour, transferred to MS medium containing 20 μM ABA and 1 μM TSA, incubated for 1 to 6 hours and then subjected to TSA treatment. Next, about 0.1 g of rice tissues was pulverized, homogenized with a buffer solution containing 50 mM Tris-HCl (pH 8.0), 150 mM NaCl, 10% glycerol, 0.5% Triton X-100, 2 mM phenylmethanesulfonyl fluoride, 1 μg/ml aprotinine, 1 μg/ml pepstatin and 1 μg/ml leupeptin, and then incubated at 4° C. for one hour. After incubation, the mixed solution was centrifuged at 4° C. for 5 minutes, and the protein concentration was determined using Bradford solution (BioRad, USA). The protein extract was separated from 12% SDS gel, transferred to polyvinylidene difluoride (PVDF) membrane (Immobilon-P, Millipore), and then reacted with mouse HDAC1 (mHDAC1), histone H4 (H4), acetylated histone (AcH4), the secondary antibody wherein primary antibody to acetylated histone H4 (AcH4) (Upstate Biotechnology, USA) is combined with alkaline phosphatase. […] Thus, it was confirmed that the expression of tetra-acetylated histone H4 as reduced in Ai::OsHDAC1 rice plant is increased again by TSA treatment.

Row | SMILES | time after ABA treatment at which expression of the transcription product reaches the maximum level [1] | growth of untransformed plant in the presence of ABA (untransformed rice plant) | growth of Ai::OsHDAC1 rice plant in the presence of ABA (Ai::OsHDAC1 rice plant) | total H4 after TSA treatment (histone deacetylase) | expression level of tetra-acetylated histone H4 after TSA treatment (histone deacetylase; both Ai::OsHDAC1 and untransformed rice plant callus cells)
1 | CC1=CC(=O)CC(C)(C)[C@@]1(O)/C=C/C(C)=C\C(=O)O [ABA, abscisic acid] | one | inhibition of growth | increase of growth | – | –
2 | CC(/C=C/C(=O)NO)=C\[C@@H](C)C(=O)c1ccc(N(C)C)cc1 [TSA, tricostatin A] | – | – | – | substantially not changed | greatly increased
